Each molecule was assayed against human PAD4 (hPAD4) (Homo sapiens, UniProt Q9UM07) (assay: RFMS human PAD4 functional assay (rapid-fire mass spectrum)). Conditions: 5 nM hPAD4 enzyme, 250 μM BAEE, 50 μM Calcium; 30 min preincubation, 90 min reaction at 37° C.
Assay type: biochemical
In short: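 PAD4 (10 nM) preincubated 30 min with compound (top final 50 μM), then BAEE substrate added in pH 7.5 HEPES buffer with DTT, 50 μM calcium, TPEN; 90 min at 37° C. After TCA quench, citrulline derivatized with phenyl glyoxal (4 mM final, 30 min, 37° C) and quantified by RapidFire MS against internal standard.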

Chain of human PAD4 (hPAD4) (Q9UM07 whole entry): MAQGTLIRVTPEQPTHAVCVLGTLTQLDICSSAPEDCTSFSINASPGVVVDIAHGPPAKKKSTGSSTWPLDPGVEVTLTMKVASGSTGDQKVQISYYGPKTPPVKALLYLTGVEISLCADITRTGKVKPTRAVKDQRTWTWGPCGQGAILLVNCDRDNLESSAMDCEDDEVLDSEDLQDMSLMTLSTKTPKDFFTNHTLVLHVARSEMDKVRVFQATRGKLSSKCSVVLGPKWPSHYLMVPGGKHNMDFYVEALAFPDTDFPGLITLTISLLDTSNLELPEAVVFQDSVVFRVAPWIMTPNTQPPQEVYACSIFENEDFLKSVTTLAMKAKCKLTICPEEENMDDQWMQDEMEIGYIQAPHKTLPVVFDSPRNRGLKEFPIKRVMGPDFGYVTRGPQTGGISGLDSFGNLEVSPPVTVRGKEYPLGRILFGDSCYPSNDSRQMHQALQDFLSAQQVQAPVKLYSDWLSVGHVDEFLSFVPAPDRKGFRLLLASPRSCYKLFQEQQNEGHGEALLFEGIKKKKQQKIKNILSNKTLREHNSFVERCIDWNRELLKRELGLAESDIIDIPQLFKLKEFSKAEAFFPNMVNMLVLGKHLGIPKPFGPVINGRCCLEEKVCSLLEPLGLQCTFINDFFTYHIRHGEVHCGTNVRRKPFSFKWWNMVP

IC50 | Molecule
66 nM | COc1ncccc1-n1cc(Cn2c(-c3cc4ccccc4n3CC3CC3)nc3cc(C(=O)N4CC5CCC4[C@@H]5N)cc(OC)c32)cn1 (stereo partly drawn) [Example 403, (7R)-2-{2-[1-(cyclopropylmethyl)-1H-indol-2-yl]-7-methoxy-1-{[1-(2-methoxypyridin-3-yl)-1H-pyrazol-4-yl]methyl}-1H-1,3-benzodiazole-5-carbonyl)-2-azabicyclo[2.2.1]heptan-7-amine]
590 nM | Cn1cc(Cn2c(-c3cc4ccccc4n3CC3CC3)nc3cc(C(=O)N4C[C@H](N)C[C@@H](F)C4)cc(Cl)c32)cn1 [Example 517, (3R,5R)-1-{7-chloro-2-[1-(cyclopropylmethyl)-1H-indol-2-yl]-1-[(1-methyl-1H-pyrazol-4-yl)methyl]-1H-1,3-benzodiazole-5-carbonyl}-5-fluoropiperidin-3-amine]
81 nM | COc1cc(C(=O)N2CC3CCC2[C@@H]3N)cc2nc(-c3cc4cccnc4n3CC3CC3)n(C[C@@H]3CCN(c4nccnc4C#N)C3)c12 (stereo partly drawn) [Example 212, 3-[(3R)-3-({5-[(1R,4R,7R)-7-amino-2-azabicyclo[2.2.1]heptane-2-carbonyl]-2-[1-(cyclopropylmethyl)-1H-pyrrolo[2,3-b]pyridin-2-yl]-7-methoxy-1H-1,3-benzodiazol-1-yl}methyl)pyrrolidin-1-yl]pyrazine-2-carbonitrite]
30 nM | Cn1cc(Cn2c(-c3cc4ccccc4n3CC3CC3)nc3cc(C(=O)N4CC5CCC4[C@@H]5N)cc(Cl)c32)cn1 (stereo partly drawn) [Example 484, (7R)-2-{7-chloro-2-[1-(cyclopropylmethyl)-1H-indol-2-yl]-1-[(1-methyl-1H-pyrazol-4-yl)methyl]-1H-1,3-benzodiazole-5-carbonyl}-2-azabicyclo[2.2.1]heptan-7-amine]
87 nM | COc1cnc(N2CC(Cn3c(-c4cc5cccnc5n4CC4CC4)nc4cc(C(=O)N5C[C@H]6CC[C@@H]5[C@@H]6N)cc(OC)c43)C2)cn1 [Example 33, (1R,4R,7R)-2-{2-[1-(cyclopropylmethyl)-1H-pyrrolo[2,3-b]pyridin-2-yl]-7-methoxy-1-{[1-(5-methoxypyrazin-2-yl)azetidin-3-yl]methyl}-1H-1,3-benzodiazole-5-carbonyl}-2-azabicyclo[2.2.1]heptan-7-amine]
1650 nM | COc1cc(C(=O)N2CCC[C@@H](N)C2)cc2nc(-c3cc4cccnc4n3CC3CC3)n([C@H]3C[C@@H](N)C3)c12 [Example 303, (3R)-1-{2-[1-(cyclopropylmethyl)-1H-pyrrolo[2,3-b]pyridin-2-yl]-7-methoxy-1-[(1s,3s)-3-aminocyclobutyl]-1H-1,3-benzodiazole-5-carbonyl}piperidin-3-amine]
102 nM | COc1cc(C(=O)N2C[C@H]3CC[C@@H]2[C@@H]3N)cc2nc(-c3cc4cc(Cl)ccc4n3C)n(CC3CN(c4ccnc(C#N)n4)C3)c12 [Example 42, 4-[3-({5-[(1R,4R,7R)-7-amino-2-azabicyclo[2.2.1]heptane-2-carbonyl]-2-(5-chloro-1-methyl-1H-indol-2-yl)-7-methoxy-1H-1,3-benzodiazol-1-yl}methyl)azetidin-1-yl]pyrimidine-2-carbonitrile]
46 nM | COc1cc(C(=O)N2C[C@H]3CC[C@@H]2[C@@H]3N)cc2nc(-c3cc4cccnc4n3CC3CC3)n(CC3CN(c4nc(C#N)ncc4C#N)C3)c12 [Example 14, 4-[3-({5-[(1R,4R,7R)-7-amino-2-azabicyclo[2.2.1]heptane-2-carbonyl]-2-[1-(cyclopropylmethyl)-1H-pyrrolo[2,3-b]pyridin-2-yl]-7-methoxy-1H-1,3-benzodiazol-1-yl}methyl)azetidin-1-yl]pyrimidine-2,5-dicarbonitrile]
44 nM | Cc1cc(C(=O)N2CC3CCC2[C@@H]3N)cc2nc(-c3cc4ccccc4n3CC3CC3)n(CC3CN(C(=O)c4ccc(C#N)cc4)C3)c12 (stereo partly drawn) [Example 449, 4-[3-({5-[(7R)-7-amino-2-azabicyclo[2.2.1]heptane-2-carbonyl]-2-[1-(cyclopropylmethyl)-1H-indol-2-yl]-7-methyl-1H-1,3-benzodiazol-1-yl}methyl)azetidine-1-carbonyl]benzonitrile]
33 nM | COc1cc(C(=O)N2C[C@H]3CC[C@@H]2[C@@H]3N)cc2nc(-c3cc4ccccc4n3CC3CC3)n(CC3CN(C(=O)c4cccc(F)c4)C3)c12 [Example 169, (1R,4R,7R)-2-{2-[1-(cyclopropylmethyl)-1H-indol-2-yl]-1-{[1-(3-fluorobenzoyl)azetidin-3-yl]methyl}-7-methoxy-1H-1,3-benzodiazole-5-carbonyl}-2-azabicyclo[2.2.1]heptan-7-amine]
32 nM | COc1cc(C(=O)N2C[C@H]3CC[C@@H]2[C@@H]3N)cc2nc(-c3cc4ccccc4n3C)n(CC3CN(c4ccnc(C#N)n4)C3)c12 [Example 10, 4-[3-({5-[(1R,4R,7R)-7-amino-2-azabicyclo[2.2.1]heptane-2-carbonyl]-7-methoxy-2-(1-methyl-1H-indol-2-yl)-1H-1,3-benzodiazol-1-yl}methyl)azetidin-1-yl]pyrimidine-2-carbonitrile]
37 nM | COc1cc(C(=O)N2CC3CCC2[C@@H]3N)cc2nc(-c3cc4ccccc4n3CC3CC3)n(Cc3cnn(-c4cccc(C)n4)c3)c12 (stereo partly drawn) [Example 381, (7R)-2-{2-[1-(cyclopropylmethyl)-1H-indol-2-yl]-7-methoxy-1-{[1-(6-methylpyridin-2-yl)-1H-pyrazol-4-yl]methyl}-1H-1,3-benzodiazole-5-carbonyl}-2-azabicydo[2.2.1]heptan-7-amine]
42 nM | COc1cc(C(=O)N2CC3CCC2[C@@H]3N)cc2nc(-c3cc4ccccc4n3CC3CC3)n(CC3CN(C(=O)c4cncnc4)C3)c12 (stereo partly drawn) [Example 443, (7R)-2-{2-[1-(cyclopropylmethyl)-1H-indol-2-yl]-7-methoxy-1-{[1-(pyrimidine-5-carbonyl)azetidin-3-yl]methyl}-1H-1,3-benzodiazole-5-carbonyl}-2-azabicyclo[2.2.1]heptan-7-amine]
912 nM | COc1cc(C(=O)N2CCC[C@@H](N)C2)cc2nc(-c3cc4cccnc4n3CC3CC3)n([C@H]3C[C@H](N)C3)c12 [Example 300, (3R)-1-{2-[1-(cyclopropylmethyl)-1H-pyrrolo[2,3-b]pyridin-2-yl]-7-methoxy-1-[(1r,3r)-3-aminocyclobutyl]-1H-1,3-benzodiazole-5-carbonyl}piperidin-3-amine]
12 nM | N#Cc1ccc(C(=O)N2CC(Cn3c(-c4cc5ccccc5n4CC4CC4)nc4cc(C(=O)N5C[C@H]6CC[C@@H]5[C@@H]6N)cc(F)c43)C2)cc1 [Example 92, 4-(3-((5-((1R,4R,7R)-7-amino-2-azabicyclo[2.2.1]heptane-2-carbonyl)-2-(1-(cyclopropylmethyl)-1H-indol-2-yl)-7-fluoro-1H-benzo[d]imidazol-1-yl)methyl)azetidine-1-carbonyl)benzonitrile]
1570 nM | COC(=O)N1CC(Cn2c(-c3cc4cccnc4n3CC3CC3)nc3cc(C(=O)N4CCC[C@@H](N)C4)cc(OC)c32)C1 [Example 192, methyl 3-({5-[(3R)-3-aminopiperidine-1-carbonyl]-2-[1-(cyclopropylmethyl)-1H-pyrrolo[2,3-b]pyridin-2-yl]-7-methoxy-1H-1,3-benzodiazol-1-yl}methyl)azetidine-1-carboxylate]
23 nM | COc1cc(C(=O)N2CC3CCC2[C@@H]3N)cc2nc(-c3cc4ccccc4n3CC3CC3)n(Cc3cnn(C)c3C)c12 (stereo partly drawn) [Example 482, (7R)-2-{2-[1-(cyclopropylmethyl)-1H-indol-2-yl]-1-[(1,5-dimethyl-1H-pyrazol-4-yl)methyl]-7-methoxy-1H-1,3-benzodiazole-5-carbonyl}-2-azabicyclo[2.2.1]heptan-7-amine]
111 nM | COc1nccc(N2CC(n3c(-c4cc5cccnc5n4CC4CC4)nc4cc(C(=O)N5C[C@H]6CC[C@@H]5[C@@H]6N)cc(OC)c43)C2)n1 [Example 71, (1R,4R,7R)-2-{2-[1-(cyclopropylmethyl)-1H-pyrrolo[2,3-b]pyridin-2-yl]-7-methoxy-1-[1-(2-methoxypyrimidin-4-yl)azetidin-3-yl]-1H-1,3-benzodiazole-5-carbonyl}-2-azabicyclo[2.2.1]heptan-7-amine]
116 nM | COC(=O)c1cc(C(=O)N2CC(Cn3c(-c4cc5cccnc5n4CC4CC4)nc4cc(C(=O)N5C[C@H]6CC[C@@H]5[C@@H]6N)cc(OC)c43)C2)ccn1 [Example 129, methyl 4-[3-({5-[(1R,4R,7R)-7-amino-2-azabicyclo[2.2.1]heptane-2-carbonyl]-2-[1-(cyclopropylmethyl)-1H-pyrrolo[2,3-b]pyridin-2-yl]-7-methoxy-1H-1,3-benzodiazol-1-yl}methyl)azetidine-1-carbonyl]pyridine-2-carboxylate]
30 nM | N#Cc1ccc(C(=O)N2CC(Cn3c(-c4cc5ccccc5n4CC4CC4)nc4cc(C(=O)N5C[C@H]6CC[C@@H]5[C@@H]6N)ccc43)C2)cc1 [Example 165, 4-[3-({5-[(1R,4R,7R)-7-amino-2-azabicyclo[2.2.1]heptane-2-carbonyl]-2-[1-(cyclopropylmethyl)-1H-indol-2-yl]-1H-1,3-benzodiazol-1-yl}methyl)azetidine-1-carbonyl]benzonitrile]
292 nM | COc1cc(C(=O)N2C[C@H]3CC[C@@H]2[C@@H]3N)cc2nc(-c3cc4cccnc4n3CC3CC3)n(C3CN(c4cncnc4)C3)c12 [Example 76, (1R,4R,7R)-2-{2-[1-(cyclopropylmethyl)-1H-pyrrolo[2,3-b]pyridin-2-yl]-7-methoxy-1-[1-(pyrimidin-5-yl)azetidin-3-yl]-1H-1,3-benzodiazole-5-carbonyl}-2-azabicyclo[2.2.1]heptan-7-amine]

Molecule | IC50
6-[(3S)-3-({5-[(1R,4R,7R,)-7- amino-2- azabicyc1o[2.2.1]heptane-2- carbonyl]-7-methoxy-2-{1- methyl-1H-pyrrolo[2,3- b]pyridin-2-yl}-1H-1,3- benzodiazol-1- yl}methyl)pyrrolidin-1- yl]pyrazine-2-carbonitrile [Example 235] | 366 nM

Reference: patent US12692254B2, “Benzimidazole inhibitors of PAD enzymes” (BRISTOL-MYERS SQUIBB COMPANY, priority 2018, dated 2026)
